Reference: US20090131481A1, “Transcription Factor Modulating Compounds and Methods of Use Thereof” (Paratek Pharmaceuticals, Inc., published 2009)
Read-outs that look alike come from different tables or passages of the source.

T1: ExsA (Pseudomonas aeruginosa, UniProt P26993)
T1 construct: made in house
T1 sequence (P26993 1-278): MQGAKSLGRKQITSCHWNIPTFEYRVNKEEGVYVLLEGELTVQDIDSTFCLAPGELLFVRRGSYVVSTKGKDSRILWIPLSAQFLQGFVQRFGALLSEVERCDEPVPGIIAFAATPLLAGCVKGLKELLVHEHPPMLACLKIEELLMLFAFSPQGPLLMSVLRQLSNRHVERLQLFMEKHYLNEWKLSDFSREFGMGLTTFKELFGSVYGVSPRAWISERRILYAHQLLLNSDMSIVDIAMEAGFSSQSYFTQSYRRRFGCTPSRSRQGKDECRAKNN

T2: SlyA (Escherichia coli, UniProt P0A8W2)
T2 sequence (P0A8W2 1-144): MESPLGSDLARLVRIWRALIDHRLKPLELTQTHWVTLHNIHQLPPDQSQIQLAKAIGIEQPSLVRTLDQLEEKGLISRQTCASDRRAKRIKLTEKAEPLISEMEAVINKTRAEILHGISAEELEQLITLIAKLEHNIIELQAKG

T3: MarA (Escherichia coli, UniProt P0ACH5)
T3 sequence (P0ACH5 1-127): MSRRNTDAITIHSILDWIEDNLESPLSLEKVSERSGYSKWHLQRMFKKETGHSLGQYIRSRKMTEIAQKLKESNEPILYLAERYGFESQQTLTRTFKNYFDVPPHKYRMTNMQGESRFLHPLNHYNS

T4: Rma (Salmonella typhimurium, UniProt H9L484)
T4 construct: fused on or other part: 6-histidine tag
T4 sequence (H9L484 1-113): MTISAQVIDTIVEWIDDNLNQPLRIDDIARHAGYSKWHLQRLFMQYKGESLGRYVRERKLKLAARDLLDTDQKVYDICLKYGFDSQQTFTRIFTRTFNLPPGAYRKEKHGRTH

T5: SoxS (Escherichia coli, UniProt P0A9E2)
T5 sequence (P0A9E2 1-107): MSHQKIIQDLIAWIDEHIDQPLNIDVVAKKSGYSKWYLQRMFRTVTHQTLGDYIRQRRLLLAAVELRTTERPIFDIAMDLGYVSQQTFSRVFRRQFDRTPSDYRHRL

T6: Rob (Escherichia coli, UniProt P0ACI0)
T6 sequence (P0ACI0 1-289): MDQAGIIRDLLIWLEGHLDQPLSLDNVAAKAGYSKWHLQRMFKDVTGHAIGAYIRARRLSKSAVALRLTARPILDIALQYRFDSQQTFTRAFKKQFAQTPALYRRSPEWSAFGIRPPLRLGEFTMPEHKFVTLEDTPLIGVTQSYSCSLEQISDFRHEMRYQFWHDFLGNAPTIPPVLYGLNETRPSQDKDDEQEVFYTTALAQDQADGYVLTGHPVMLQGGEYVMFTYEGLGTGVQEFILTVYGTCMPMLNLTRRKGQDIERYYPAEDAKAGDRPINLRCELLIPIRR

B1: LANCE target DNA (SEQ ID NO. 1) (dsDNA)
DNA 1: CCGATTTAGCAAAACGTGGCATCGGTC
DNA 2: GACCGATGCCACGTTTTGCTAAATCGG

How the values were obtained:
[1] = biological target: T1, ExsA; experiment: Chemiluminescence-based ExsA-DNA binding assay; set-up: species or system P. aeruginosa; settings: read-out: ExsA EC50
[2] = biological target: T2, SlyA; experiment: biochemical; format: binding, E. coli
[3] = biological target: T3, MarA; experiment: Chemiluminescence-based MarA-DNA binding assay; set-up: species or system E. coli; settings: Table 10
[4] = biological target: T4, Rma; experiment: Chemiluminescence-based Rma-DNA binding assay; set-up: species or system S. typhimurium; settings: Table 10
[5] = biological target: T5, SoxS; experiment: Chemiluminescence-based SoxS-DNA binding assay; set-up: made in house; species or system E. coli
[6] = biological target: T6, Rob; experiment: Chemiluminescence-based Rob-DNA binding assay; set-up: species or system E. coli; settings: Table 10
[7] = test system: E. coli UPEC strain C189; experiment: Ascending pyelonephritis model of infection (Example 3); format: in vivo; settings: female CD1 mice, oral dosing at infection and once a day for 4 days, 5-day infection
[8] = test system: uncut plasmid DNA; experiment: Qualitative agarose gel DNA intercalation assay; format: binding; settings: 100 ng uncut plasmid DNA, compared with a known DNA intercalator
[9] = test system: E. coli C189 (clinical cystitis isolate); experiment: E. coli ascending pyelonephritis model, compound GM (Example 4); format: in vivo; settings: CD1 mice
[10] = biological target: LcrF (VirF) (Yersinia pestis, UniProt P28808); experiment: biochemical; format: binding, Y. pseudotuberculosis; settings: EC50 for inhibition of LcrF(VirF)-DNA binding
[11] = test system: P. aeruginosa PA103; experiment: Lethal P. aeruginosa pneumonia model in mice; format: in vivo; settings: IP 25 mg/kg, 10^6 organisms intranasally, FIG. 5 and 6
[12] = biological target: ExsA (Pseudomonas aeruginosa, UniProt P26993 P26993:1-278); experiment: LANCE TR-FRET; same buffer; basis of inhibitor screen; settings: tags: 6xHis; label: N-term (5') biotin
[13] = dose response analysis (footnote c), read-out: in vitro SoxS activity: concentration necessary to inhibit DNA-protein binding by 50% (EC50)

Chain of LcrF (VirF) (P28808 whole entry, looked up): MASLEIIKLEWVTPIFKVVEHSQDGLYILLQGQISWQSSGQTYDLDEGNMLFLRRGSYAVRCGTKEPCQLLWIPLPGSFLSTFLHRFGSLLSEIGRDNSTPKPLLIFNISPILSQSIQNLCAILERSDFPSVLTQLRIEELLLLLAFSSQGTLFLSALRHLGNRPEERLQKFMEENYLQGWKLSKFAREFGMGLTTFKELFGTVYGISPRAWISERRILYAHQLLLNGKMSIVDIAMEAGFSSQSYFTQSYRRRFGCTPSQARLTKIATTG

Molecule	EC50 ([1]; Table 7, cell-free system)	EC50 ([1]; Table 10)	EC50 [2]	EC50 [3]	EC50 [4]	EC50 ([5]; Table 10, read-out: SoxS EC50)	EC50 [5, 13]	EC50 [6]	further results
CN(C)c1ccc(C(=O)Nc2ccc(-c3nc4ccc([N+](=O)[O-])cc4n3O)cc2)cc1 [AH]	> 25 µM	1 to 4.9 µM	> 5 µM	1 to 4.9 µM	1 to 4.9 µM	< 0.9 µM	< 0.9 µM	1 to 4.9 µM	–
O=[N+]([O-])c1ccc2nc(-c3ccc(-c4ccccc4)o3)n(O)c2c1 [BQ]	–	> 5 µM	> 5 µM	> 5 µM	> 5 µM	1 to 4.9 µM	> 5 µM	> 5 µM	Efficacy (log10 decrease in the CFU/g kidney tissue) [7]: ** (exhibited a 1.1-2.0 log decrease in CFU/g); ability to intercalate DNA [8]: not found to intercalate DNA
Cc1ccc(COn2c(-c3ccccc3)nc3ncccc32)cc1 [GM]	–	–	–	–	–	–	–	–	Difference between vehicle treated and compound dose group (kidneys harvested 5 days post infection) ([9]; single dose at the time of infection, 100 mg/kg, p<0.003): statistically significant difference; Difference between untreated (vehicle) and compound dose groups (kidneys harvested 5 days post infection) ([9]; subcutaneous at 0, 6, 24, 30, 48, 54, 72 and 96 hours post-infection, 1, 5 and 20 mg/kg, p<0.05): statistically significant difference
O=C(Nc1ccc(-c2nc3ccc([N+](=O)[O-])cc3n2O)cc1)c1ccc(-n2ccnc2)cc1 [I]	10 to 25 µM	–	–	–	–	–	–	–	EC50 [10]: < 10 µM; survival at 48 hours post infection [11]: 50%
B1	–	–	–	–	–	–	–	–	binding result [12]: binds
